System: fibrosarcoma cell line HT1080
Test: Ferroptosis screening model (MTT method), Erastin-induced ferroptosis
Assay type: cell-based, human
Settings: Homo sapiens, HT-1080, 72 h, HT1080, ferroptosis inducer Erastin, 72 h, average of three tests, read-out: EC50
Experimental: The screening model for ferroptosis mainly used MTT method. First, the fibrosarcoma cell line HT1080 was cultured in a dish, and the cells in the logarithmic growth phase were inoculated into a 96-well plate in a certain number (3000-10000 cells/well), 100 μL per well, and then the plate was put in an 5% CO2 incubator at 37° C., to allow the cells to adhere. After 24 h, 100 μL compound solution at a certain concentration prepared in the designated medium and ferroptosis inducer Erastin (with a final concentration of […]) were added, setting 3 replicate wells for each compound to ensure the accuracy of the results, and a negative control group, a positive control group (Fer-15 μM), a blank control group and a solvent control group were included. After addition of drugs, the plate was placed in an incubator and cultivated for 72 h. On the day of MTT experiment, MTT test solution (5 mg/mL MTT solution dissolved in physiological saline, and stored in the dark at 4° C.) was pre-prepared and 20 μL MTT solution was added to each well, then the plate was put in an incubator and continued to incubate for 2-4 h. After that, 50 μL of 20% SDS solution (dissolved in MiliiQ water, added with 1% concentrated hydrochloric acid) was added to each well and kept in an incubator overnight. On the next day, the absorbance at 570 nm was measured with a microplate reader, to calculate the inhibition rate of drugs on ferroptosis. Generally, the absorbance value of the control group should be in the range of 0.8-1.2 as a normal value.
GraphPadPrism5 software was used to fit the change curve of inhibition rate and calculate the EC50.

EC50 [nM]	SMILES
6	CC(c1ccc(F)cc1)c1ccc2c(c1)Nc1ccccc1S2 (stereo not shown) [Compound A19, 2-(1-(4-fluorophenyl)ethyl)-10H-phenothiazine]
30	C=C(c1cccc(OC(F)(F)F)c1)c1ccc2c(c1)Nc1ccccc1S2 [Compound B22, 2-(1-(3-trifluoromethoxylphenyl)ethenyl)-10H-phenothiazine]
15	CC(C)Oc1cccc(C(C)c2ccc3c(c2)Nc2ccccc2S3)c1 (stereo not shown) [Compound A12, 2-(1-(3-isopropoxylphenyl)ethyl)-10H-phenothiazine]
11	C=C(c1ccc(N)nc1)c1ccc2c(c1)Nc1ccccc1S2 [Compound B44, 5-(1-(10H-phenothiazin-2-yl)ethenyl)pyridin-2-amine]
31	CC(c1ccc2c(c1)Nc1ccccc1S2)S(=O)(=O)N1CCSCC1 (stereo not shown) [Compound C20, 2-(1-(thiomorpholinesulfonyl)ethyl)-10H-phenothiazine]
148	C=C(c1cccc(S(=O)(=O)NC(C)(C)C)c1)c1ccc2c(c1)Nc1ccccc1S2 [Compound B53, 3-(1-(10H-phenothiazin-2-yl)ethenyl)-N-(t-butyl)Benzenesulfonamide]
5	CC(c1cccc(Cl)c1)c1ccc2c(c1)Nc1ccccc1S2 (stereo not shown) [Compound A3, 2-(1-(3-chlorophenyl)ethyl)-10H-phenothiazine]
45	C=C(c1cccc(C(F)(F)F)c1)c1ccc2c(c1)Nc1ccccc1S2 [Compound B30, 2-(1-(3-(trifluoromethyl)phenyl)ethenyl)-10H-phenothiazine]
6	COc1ccc(C(C)c2ccc3c(c2)Nc2ccccc2S3)cc1 (stereo not shown) [Compound A30, 2-(1-(4-methoxylphenyl)ethyl)-10H-phenothiazine]
3	COc1ccc2cc(C(C)c3ccc4c(c3)Nc3ccccc3S4)ccc2c1 (stereo not shown) [Compound A69, 2-(1-(6-methoxylnaphthalen-2-yl)ethyl)-10H-phenothiazine]
22	COc1cc(C(C)c2ccc3c(c2)Nc2ccccc2S3)ccc1C (stereo not shown) [Compound A48, 2-(1-(3-methoxyl-4-methylphenyl)ethyl)-10H-phenothiazine]
11	C=C(c1ccc(S(=O)(=O)NC2CCOCC2)cc1)c1ccc2c(c1)Nc1ccccc1S2 [Compound B52, 4-(1-(10H-phenothiazin-2-yl)ethenyl)-N-(tetrahydro-2H-pyran-4-yl)benzenesulfonamide]
4	C=C(c1cnc(N2CCCN(C)CC2)nc1)c1ccc2c(c1)Nc1ccccc1S2 [Compound B50, 2-(1-(2-(4-methyl-1,4-homopiperazin-1-yl)pyrimidin-5-yl)ethenyl)-10H-phenothiazine]
5	CC(c1ccc2c(c1)Nc1ccccc1S2)S(=O)(=O)N1CCN(c2ccncc2)CC1 (stereo not shown) [Compound C17, 2-(1-((4-(pyridin-4-yl)piperazin-1-yl)sulfonyl)ethyl)-10H-phenothiazine]
129	CC(c1ccc2c(c1)Nc1ccccc1S2)S(=O)(=O)N1CCN(c2cnccn2)CC1 (stereo not shown) [Compound C57, 2-(1-((4-(pyrazin-2-yl)piperazin-1-yl)sulfonyl)ethyl)-10H-phenothiazine]
62	CC(c1ccc2c(c1)Nc1ccccc1S2)S(=O)(=O)N1CCN(CCO)CC1 (stereo not shown) [Compound C13, 2-(4-((1-(10H-phenothiazin-2-yl)ethyl)sulfonyl)piperazin-1-yl)-1-ethanol]
269	CC(c1ccc2c(c1)Nc1ccccc1S2)S(=O)(=O)N1CCN(C(=O)C2CCCO2)CC1 (stereo not shown) [Compound C11, (4-((1-(10H-phenothiazin-2-yl)ethyl)sulfonyl)piperazin-1-yl)(tetrahydrofuran-2-yl)ketone]
8	CC(c1ccc2c(c1)Nc1ccccc1S2)c1ccc2c(c1)OCCO2 (stereo not shown) [Compound A65, 2-(1-(2,3-dihydrobenzo[b][1,4]dioxa-6-yl)ethyl)-10H-phenothiazine]
7	COc1ccc(C(C)c2ccc3c(c2)Nc2ccccc2S3)cc1OC (stereo not shown) [Compound A47, 2-(1-(3,4-dimethoxylphenyl)ethyl)-10H-phenothiazine]
